The text below walks through data of ChEMBL document CHEMBL5465560, “Selectivity Literature for EUbOPEN Chemogenomic Library” (2024).

In test [1] the target is Serine/threonine-protein kinase WNK1 (Homo sapiens) (UniProt Q9H4A3). Put plainly: Selectivity interaction (Kinase panel (KiNativ target engagement assay in Jurkat cells)) EUB0001635a WNK1. The class given is cell-based. The following applies: at 1 µM.
Test [2] concerns the target Serine/threonine-protein kinase 35 (Homo sapiens) (UniProt Q8TDR2). The experiment in a line: Selectivity interaction (KinomeScan (DiscoverX)) EUB0000607a STK35. Particulars: at 10 µM.
The target in test [3] is Serine/threonine-protein kinase MARK2 (Homo sapiens) (UniProt Q7KZI7). Put plainly: Selectivity interaction (ActivX KiNativ screen (kinase selectivity in THP-1 cell lysates)) EUB0000639a MARK2. The class given is subcellular. Particulars: lysate, at 0.2 µM.
Sequence of Serine/threonine-protein kinase MARK2 (Homo sapiens) (Q7KZI7 whole entry): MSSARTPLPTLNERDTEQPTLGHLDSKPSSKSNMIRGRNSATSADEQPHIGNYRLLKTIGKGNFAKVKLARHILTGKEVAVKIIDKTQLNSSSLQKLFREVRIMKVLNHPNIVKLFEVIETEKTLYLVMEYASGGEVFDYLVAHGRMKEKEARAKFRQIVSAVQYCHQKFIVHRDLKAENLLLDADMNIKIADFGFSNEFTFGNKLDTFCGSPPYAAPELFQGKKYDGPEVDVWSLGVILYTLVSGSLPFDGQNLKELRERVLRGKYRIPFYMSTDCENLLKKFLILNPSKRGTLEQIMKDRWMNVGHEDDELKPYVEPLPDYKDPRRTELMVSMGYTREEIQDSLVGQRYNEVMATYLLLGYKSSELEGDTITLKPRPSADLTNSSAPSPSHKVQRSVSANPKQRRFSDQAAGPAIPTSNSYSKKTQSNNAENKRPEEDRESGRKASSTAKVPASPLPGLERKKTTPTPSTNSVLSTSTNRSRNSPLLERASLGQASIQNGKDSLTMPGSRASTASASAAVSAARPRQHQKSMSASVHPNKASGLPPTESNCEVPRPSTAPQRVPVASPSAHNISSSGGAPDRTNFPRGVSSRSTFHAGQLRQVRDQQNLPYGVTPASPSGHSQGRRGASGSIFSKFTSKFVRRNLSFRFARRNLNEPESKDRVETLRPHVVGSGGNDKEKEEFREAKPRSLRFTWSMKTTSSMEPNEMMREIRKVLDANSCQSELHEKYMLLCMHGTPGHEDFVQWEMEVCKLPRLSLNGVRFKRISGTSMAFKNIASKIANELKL
Test [4] deals with Casein kinase II subunit alpha (Homo sapiens, UniProt P68400). The experiment in a line: Selectivity interaction (Kinase panel (DSF assay)) EUB0001559a CSNK2A1. For orientation: Differential scanning fluorimetry follows unfolding on heating by fluorescence.
Sequence of Casein kinase II subunit alpha (P68400 whole entry, looked up): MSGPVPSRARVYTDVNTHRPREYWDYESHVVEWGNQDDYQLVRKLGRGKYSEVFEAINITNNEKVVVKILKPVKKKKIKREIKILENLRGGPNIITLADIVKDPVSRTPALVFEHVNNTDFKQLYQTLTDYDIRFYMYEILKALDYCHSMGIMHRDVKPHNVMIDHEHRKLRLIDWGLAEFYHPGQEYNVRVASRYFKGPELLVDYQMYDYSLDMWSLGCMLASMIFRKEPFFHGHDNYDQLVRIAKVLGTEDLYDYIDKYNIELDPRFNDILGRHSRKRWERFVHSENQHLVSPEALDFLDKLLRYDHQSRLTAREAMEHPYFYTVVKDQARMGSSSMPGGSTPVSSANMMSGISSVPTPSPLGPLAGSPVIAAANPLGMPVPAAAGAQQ
Test [5] concerns T1, Receptor-type tyrosine-protein kinase FLT3 (Homo sapiens), P36888 [R834Q].
T1 sequence (whole entry): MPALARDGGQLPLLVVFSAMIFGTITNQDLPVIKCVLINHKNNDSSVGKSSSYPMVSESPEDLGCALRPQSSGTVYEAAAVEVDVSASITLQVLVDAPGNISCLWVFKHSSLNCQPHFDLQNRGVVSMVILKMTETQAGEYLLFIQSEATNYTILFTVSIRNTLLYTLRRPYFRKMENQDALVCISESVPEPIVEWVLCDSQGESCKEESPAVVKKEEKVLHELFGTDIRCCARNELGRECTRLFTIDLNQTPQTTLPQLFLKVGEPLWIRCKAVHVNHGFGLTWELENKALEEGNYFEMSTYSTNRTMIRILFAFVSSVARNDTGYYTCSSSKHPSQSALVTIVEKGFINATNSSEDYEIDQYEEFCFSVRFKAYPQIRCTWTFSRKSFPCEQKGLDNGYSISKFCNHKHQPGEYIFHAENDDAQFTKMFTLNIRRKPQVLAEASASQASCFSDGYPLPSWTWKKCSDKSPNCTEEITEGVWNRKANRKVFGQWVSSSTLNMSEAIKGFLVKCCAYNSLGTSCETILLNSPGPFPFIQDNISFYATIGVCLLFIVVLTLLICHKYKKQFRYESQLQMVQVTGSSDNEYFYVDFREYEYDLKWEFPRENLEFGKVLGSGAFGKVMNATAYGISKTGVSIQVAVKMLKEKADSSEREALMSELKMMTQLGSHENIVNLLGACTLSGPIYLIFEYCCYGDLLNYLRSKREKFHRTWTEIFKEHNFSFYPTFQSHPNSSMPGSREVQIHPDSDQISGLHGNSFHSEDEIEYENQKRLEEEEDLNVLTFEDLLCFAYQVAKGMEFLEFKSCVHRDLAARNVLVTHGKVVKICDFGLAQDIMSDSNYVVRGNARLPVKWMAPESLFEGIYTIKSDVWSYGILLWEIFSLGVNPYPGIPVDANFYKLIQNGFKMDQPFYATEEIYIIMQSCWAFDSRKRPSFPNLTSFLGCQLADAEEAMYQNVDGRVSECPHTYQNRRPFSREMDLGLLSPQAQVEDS
The experiment in a line: (§1) Selectivity interaction (KinomeScan (DiscoverX)) EUB0000595a FLT3. Particulars: at 10 µM.

For test [6], the system named is Receptor-type tyrosine-protein kinase FLT3 (Homo sapiens), P36888 [UNDEFINED MUTATION]. The description is as §1. Particulars: at 10 µM.
Test [7] addresses Receptor-type tyrosine-protein kinase FLT3 (Homo sapiens) (UniProt P36888). The description is as §1. The following applies: at 10 µM.
Test [8] concerns T2, Receptor-type tyrosine-protein kinase FLT3 (Homo sapiens), P36888 [K663Q].
T2 sequence (whole entry): T1 sequence (whole entry) with K663Q, Q834R
Described as §1. Particulars: at 10 µM.

The structures appear in SMILES notation. Positions count from the first letter of the chain named.

Sequence of Serine/threonine-protein kinase WNK1 (Homo sapiens) (Q9H4A3 whole entry, looked up): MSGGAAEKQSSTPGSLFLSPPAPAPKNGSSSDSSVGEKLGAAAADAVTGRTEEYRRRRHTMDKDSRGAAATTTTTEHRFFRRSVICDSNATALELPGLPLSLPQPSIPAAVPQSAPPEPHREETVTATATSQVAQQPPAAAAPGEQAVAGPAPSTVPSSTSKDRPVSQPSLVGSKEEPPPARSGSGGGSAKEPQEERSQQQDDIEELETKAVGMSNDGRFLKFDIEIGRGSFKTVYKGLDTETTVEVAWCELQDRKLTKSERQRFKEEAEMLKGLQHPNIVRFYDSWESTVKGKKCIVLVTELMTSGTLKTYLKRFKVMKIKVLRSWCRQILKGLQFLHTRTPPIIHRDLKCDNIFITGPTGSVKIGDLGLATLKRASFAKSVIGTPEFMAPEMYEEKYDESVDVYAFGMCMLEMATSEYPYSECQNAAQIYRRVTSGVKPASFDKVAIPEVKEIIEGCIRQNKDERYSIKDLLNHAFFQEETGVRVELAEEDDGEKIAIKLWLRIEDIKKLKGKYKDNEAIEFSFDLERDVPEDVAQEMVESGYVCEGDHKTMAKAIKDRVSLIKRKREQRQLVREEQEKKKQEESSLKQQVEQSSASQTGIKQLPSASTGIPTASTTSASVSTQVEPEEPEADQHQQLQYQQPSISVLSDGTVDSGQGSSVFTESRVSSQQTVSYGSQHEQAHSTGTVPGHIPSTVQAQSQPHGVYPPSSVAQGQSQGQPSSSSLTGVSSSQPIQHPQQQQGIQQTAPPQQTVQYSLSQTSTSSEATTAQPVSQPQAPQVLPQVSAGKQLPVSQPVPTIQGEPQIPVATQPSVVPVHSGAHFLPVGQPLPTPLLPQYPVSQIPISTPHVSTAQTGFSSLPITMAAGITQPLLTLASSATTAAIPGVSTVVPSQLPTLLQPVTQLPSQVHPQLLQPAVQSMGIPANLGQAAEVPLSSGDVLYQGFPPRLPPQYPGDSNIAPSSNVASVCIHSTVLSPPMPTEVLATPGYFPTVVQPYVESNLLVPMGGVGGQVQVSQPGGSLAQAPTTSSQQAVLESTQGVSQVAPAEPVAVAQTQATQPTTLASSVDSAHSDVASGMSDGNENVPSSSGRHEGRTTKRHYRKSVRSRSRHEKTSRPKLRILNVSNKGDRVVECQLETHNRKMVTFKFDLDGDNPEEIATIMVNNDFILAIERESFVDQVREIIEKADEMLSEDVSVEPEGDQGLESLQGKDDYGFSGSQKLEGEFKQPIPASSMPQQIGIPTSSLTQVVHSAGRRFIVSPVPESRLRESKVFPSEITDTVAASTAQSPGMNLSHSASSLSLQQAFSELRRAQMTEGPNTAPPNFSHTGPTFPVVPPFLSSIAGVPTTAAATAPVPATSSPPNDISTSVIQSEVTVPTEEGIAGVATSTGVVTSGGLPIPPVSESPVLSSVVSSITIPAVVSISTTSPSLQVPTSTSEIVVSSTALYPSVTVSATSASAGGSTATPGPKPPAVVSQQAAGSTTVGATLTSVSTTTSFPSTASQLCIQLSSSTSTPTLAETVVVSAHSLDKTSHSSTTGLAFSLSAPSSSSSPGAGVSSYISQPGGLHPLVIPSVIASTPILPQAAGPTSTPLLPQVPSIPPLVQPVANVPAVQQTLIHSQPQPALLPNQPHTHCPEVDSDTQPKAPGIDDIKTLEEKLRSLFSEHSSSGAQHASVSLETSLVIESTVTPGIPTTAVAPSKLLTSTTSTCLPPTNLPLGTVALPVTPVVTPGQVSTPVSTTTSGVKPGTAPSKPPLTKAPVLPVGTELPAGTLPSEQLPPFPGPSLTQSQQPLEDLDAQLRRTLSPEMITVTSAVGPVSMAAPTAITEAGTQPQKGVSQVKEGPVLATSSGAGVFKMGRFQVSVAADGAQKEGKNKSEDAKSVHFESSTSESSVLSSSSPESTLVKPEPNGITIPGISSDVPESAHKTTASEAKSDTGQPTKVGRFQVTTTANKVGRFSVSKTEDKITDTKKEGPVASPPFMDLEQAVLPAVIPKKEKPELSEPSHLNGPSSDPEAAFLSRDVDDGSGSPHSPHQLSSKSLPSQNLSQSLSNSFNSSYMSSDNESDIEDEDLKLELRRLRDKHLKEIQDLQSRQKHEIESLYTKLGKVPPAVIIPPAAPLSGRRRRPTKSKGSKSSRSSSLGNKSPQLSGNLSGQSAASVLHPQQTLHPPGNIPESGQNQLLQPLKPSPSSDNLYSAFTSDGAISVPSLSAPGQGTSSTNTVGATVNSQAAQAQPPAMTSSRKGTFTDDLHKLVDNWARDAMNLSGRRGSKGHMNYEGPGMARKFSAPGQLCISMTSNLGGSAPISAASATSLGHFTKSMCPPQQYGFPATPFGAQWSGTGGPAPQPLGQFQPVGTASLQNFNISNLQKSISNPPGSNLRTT
Sequence of Serine/threonine-protein kinase 35 (Homo sapiens) (Q8TDR2 whole entry): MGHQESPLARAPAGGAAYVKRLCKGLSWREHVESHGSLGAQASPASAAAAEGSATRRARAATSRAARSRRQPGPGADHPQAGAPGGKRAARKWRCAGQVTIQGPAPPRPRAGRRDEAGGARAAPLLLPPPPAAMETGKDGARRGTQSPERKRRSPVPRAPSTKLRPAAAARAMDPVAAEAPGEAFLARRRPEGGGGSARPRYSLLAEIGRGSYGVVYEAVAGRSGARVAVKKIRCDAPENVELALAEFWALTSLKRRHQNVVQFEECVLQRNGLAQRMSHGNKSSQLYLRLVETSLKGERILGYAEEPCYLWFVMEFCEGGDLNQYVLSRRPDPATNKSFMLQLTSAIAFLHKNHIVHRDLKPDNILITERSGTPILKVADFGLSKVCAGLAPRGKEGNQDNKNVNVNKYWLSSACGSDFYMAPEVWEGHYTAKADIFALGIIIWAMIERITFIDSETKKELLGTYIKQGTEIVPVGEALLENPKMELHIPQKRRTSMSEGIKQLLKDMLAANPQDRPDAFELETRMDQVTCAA

With `C=CC(=O)Nc1ccc(C(=O)Nc2[nH]nc3c2CN(C(=O)N[C@H](CN(C)C)c2ccccc2)C3(C)C)cc1`, the % of engagement in test [1] (Selectivity number of off-targets 0.0, Selectivity number of targets 233.0, Source Knowledge https://www.sciencedirect.com/science/article/pii/S2451945619300674?via%3Dihub) is -16.3%; in test [1], -12.9%. In turn, `CNC(=O)Nc1ccc(-c2nc(N3CC4CCC(C3)O4)c3cnn(C4CCC5(CC4)OCCO5)c3n2)cc1` showed a % of control in test [2] of 95%. In test [3], `CC[C@@H]1[C@H](F)C(=O)N[C@@H]1COc1nccc2cc(C(N)=O)c(OC)cc12` [ZIMLOVISERTIB] displayed a % of inhibition of 2.7%. For `CN(C(=O)c1cnn2cccnc12)c1cc2c(cc1N1CCOCC1)C(=O)N(C[C@@H](F)C(C)(C)O)C2`, the dTM in test [4] was -0.4 K. As to `COCC(=O)NC/C=C/c1ccc2ncnc(Nc3ccc(Oc4ccc(C)nc4)c(C)c3)c2c1` [CP-724714], the % of control in test [5] is 100%; in test [6], 87%; in test [7] it was 100%; in test [8], 79%.
